Data as given in patent US5763443A, “MDR resistance treatment and novel pharmaceutically active riminophenazines” (priority 1994, dated 1998).
In brackets after ≈: the same amount, converted by molar mass. Like-named read-outs stand apart in the source and are kept apart here.

Key:
[1] = system: multi-drug resistant (MDR) lung carcinoma cell line H69/LX4; assay: cells; details: for IC50: Homo sapiens; for INCREASED SENSITIVITY H69/Lx4: Table VIII, values equal IC50 NONE / IC50 with VB 25 ng/ml of Table VII, 10080 min
Experimental: The riminophenazines of the above formula (I), contain an imino group. […] The potency of compounds of the above general formula, as inhibitors of multi-drug resistance, was assessed by sensitization of a P-glycoprotein positive cell line to drugs associated with this form of resistance. A human small cell lung cancer cell line H 69/P as well as a multi-drug resistance (MDR) sub-line H69/LX4 were used. These cell lines were obtained from the Medical Research Council Clinical Oncology and Radiotherapeutics Unit, Hills Road, Cambridge, England. The H69/LX4 line was selected in vitro by progressive exposure to increasing concentrations of doxorubicin in order to increase P-glycoprotein expression.
The cell lines used were human small cell lung cancer cell line HP69/P and a multi-drug resistant (MDR) sub-line H69/LX4, both of which were supplied by the MRC Clinical Oncology and Radiotherapeutics Unit, Hills Road, Cambridge, England. The maintenance of the cell lines and drug response assays was done as described by Twentyman et al in British Journal of Cancer Volume 65 pages 335-340. The H69/LX4 line was originally described by Twentyman et al in British Journal of Cancer Volume 53, pages 529-637 (1986).
The data in parenthesis represents fold sensitivity compared with the chemotherapeutic agent without the MDR inhibitor.
The results obtained, are illustrated graphically in FIGS. 4 to 7 of the accompanying drawings.
(§1) The general procedure set forth above was followed, i.e. 7 days incubation in the4 presence of doxorubicin at 12,5 ng/ml or vinblastine at 25 or 3 ng/ml.
(§2) The effects were examined over a seven (7) day exposure to different concentrations of B4119 and B4125 on the sensitivity of a doxorubicin resistant leukaemia cell line (K562/MMB) and a lung carcinoma cell line (H69/LX4) to doxorubicin (dox) and vinblastine (VB) using the MTT assay.

[2] = system: MDR leukaemia cell line K562/MMB; assay: cells; details: for INCREASED SENSITIVITY K 562/MMB: Table VIII, values equal IC50 NONE / IC50 with VB 3 ng/ml of Table VII, 10080 min; for IC50: Homo sapiens; for MDR activity / sensitivity against cell line K562/MMP: compared with known reference compound B4100
Experimental: A third cell line (562/MMB) used was a MDR leukemia cell line selected in vitro by progressive exposure to increasing concentrations of vinblastine in order to increase P-glycoprotein expression. This cell line was developed in the Department of Immunology, University of Pretoria from K562 (ATCC CCL 243) supplied by Highveld Biological (Pty) Ltd, Sandton.
as §1, §2

[3] = 168 h, read-out: IC 50 H69/Lx4 NONE
[4] = read-out: IC 50 H69/Lx4 DOX 12 ng/ml
[5] = read-out: IC 50 H69/Lx4 VB 25 ng/ml
[6] = K562, 168 h, read-out: IC 50 K562/MMB NONE, Table VII, riminophenazine alone, 7 day
[7] = K562, read-out: IC 50 K562/MMB DOX 12 ng/ml, Table VII, with doxorubicin 12 ng/ml
[8] = K562, read-out: IC 50 K562/MMB VB 3 ng/ml, Table VII, with vinblastine 3 ng/ml

SMILES	IC50 [1, 3]	IC50 [1, 4]	IC50 [1, 5]	INCREASED SENSITIVITY H69/Lx4 [1]	INCREASED SENSITIVITY K 562/MMB [2]	MDR activity / sensitivity against cell line K562/MMP [2]	also measured
CC1(C)CC(N=c2cc3n(-c4ccc(Cl)cc4)c4ccccc4nc-3cc2Nc2ccc(Cl)cc2)CC(C)(C)N1 [Compound B3786]	0.608 µg/mL (≈ 1.07 µM)	0.597 µg/mL (≈ 1.05 µM)	0.169 µg/mL (≈ 0.296 µM)	3.60	–	–	–
CC1(C)CC(N=c2cc3n(-c4ccccc4)c4ccccc4nc-3cc2Nc2ccccc2)CC(C)(C)N1 [Compound B3962, N,5-bis(phenyl)-3,5-dihydro-3-[(2',2',6',6'-tetramethyl-4-piperidyl)imino]-2-phenazinamine]	0.563 µg/mL (≈ 1.12 µM)	0.427 µg/mL (≈ 0.851 µM)	0.262 µg/mL (≈ 0.522 µM)	2.15	4.07	–	–
CC1(C)CC(N=c2cc3n(-c4ccccc4)c4ccc(Cl)cc4nc-3cc2Nc2ccccc2)CC(C)(C)N1 [Compound B4019]	1.03 µg/mL (≈ 1.92 µM)	0.771 µg/mL (≈ 1.44 µM)	0.488 µg/mL (≈ 0.91 µM)	2.11	–	–	–
Cc1ccc(Nc2cc3nc4ccccc4n(-c4ccc(C)cc4)c-3cc2=NC2CC(C)(C)NC(C)(C)C2)cc1 [Compound B4070, N,5-bis(4-methylphenyl)-3,5-dihydro-3-[(2',2',6',6'-tetramethyl-4-piperidyl)imino]-2-phenazinamine]	0.525 µg/mL (≈ 0.991 µM)	0.312 µg/mL (≈ 0.589 µM)	0.2 µg/mL (≈ 0.378 µM)	2.63	2.94	–	IC50 [2, 6]: 0.159 µg/mL (≈ 0.3 µM); IC50 ([2]; K562, 168 h, read-out: IC 50 of riminophenazine, Doxorubicin, Table IV, K562/MMB, with doxorubicin 12 ng/ml, 7 day): 0.193 µg/mL (≈ 0.364 µM); IC50 ([2]; K562, 168 h, read-out: IC 50 of riminophenazine, None, Table IV, K562/MMB, riminophenazine alone, 7 day, mean of 2 experiments): 0.159 µg/mL (≈ 0.3 µM); IC50 ([2]; K562, 168 h, read-out: IC 50 of riminophenazine, Vinblastine, Table IV, K562/MMB, with vinblastine 3 ng/ml, 7 day): 0.054 µg/mL (≈ 0.102 µM); IC50 [2, 7]: 0.193 µg/mL (≈ 0.364 µM); IC50 [2, 8]: 0.054 µg/mL (≈ 0.102 µM)
CC1(C)CC(N=c2cc3n(-c4ccc(Cl)cc4)c4ccc(Cl)cc4nc-3cc2Nc2ccc(Cl)cc2)CC(C)(C)N1 [Compound B4090]	1.5 µg/mL (≈ 2.48 µM)	1.01 µg/mL (≈ 1.66 µM)	0.266 µg/mL (≈ 0.44 µM)	5.64	7.30	exceptionally good activity	IC50 [2, 8]: 0.027 µg/mL (≈ 0.0446 µM)
CC1(C)CC(N=c2cc3n(-c4ccc(Cl)c(Cl)c4)c4ccccc4nc-3cc2Nc2ccc(Cl)c(Cl)c2)CC(C)(C)N1 [Compound B4100, reference compound]	0.798 µg/mL (≈ 1.25 µM)	0.582 µg/mL (≈ 0.91 µM)	0.125 µg/mL (≈ 0.195 µM)	6.38	3.53	–	–
CC1(C)CC(N=c2cc3n(-c4cccc(Cl)c4)c4ccccc4nc-3cc2Nc2cccc(Cl)c2)CC(C)(C)N1 [Compound B4112, N,5-bis(3-chlorophenyl)-3,5-dihydro-3-[(2',2',6',6'-tetramethyl-4-piperidyl)-imino]-2-phenazinamine]	0.62 µg/mL (≈ 1.09 µM)	0.175 µg/mL (≈ 0.307 µM)	0.029 µg/mL (≈ 0.0508 µM)	21.38	19.5	exceptionally good activity	MDR activity against the cell line H69/LX4 [1]: very good activity; IC50 ([1]; read-out: IC50, plus VB): 0.029 µg/mL; IC50 ([1]; read-out: IC50, plus doxo): 0.62 µg/mL; direct cytotoxic activity [2]: direct cytotoxic activity in this cell line at reasonably low concentrations; IC50 [2, 6]: 0.156 µg/mL (≈ 0.273 µM); IC50 ([2]; K562, read-out: IC50, alone, Table V, K562/MMB (first value column, head not given)): 0.156 µg/mL (≈ 0.273 µM); IC50 ([2]; K562, read-out: IC50, plus VB, Table V, K562/MMB, vinblastine 3 ng/ml): 0.008 µg/mL; IC50 ([2]; K562, read-out: IC50, plus doxo, Table V, K562/MMB, doxorubicin 12 ng/ml): 0.066 µg/mL; IC50 [2, 7]: 0.066 µg/mL (≈ 0.116 µM); IC50 [2, 8]: 0.008 µg/mL (≈ 0.014 µM); lowest concentration at which compound was active ([2]; K562/MMB, Example 6): 3 ng/mL
CC1(C)CC(N=c2cc3n(-c4cccc(Cl)c4)c4ccc(Cl)cc4nc-3cc2Nc2cccc(Cl)c2)CC(C)(C)N1 [Compound B4123, N,5-bis(3-chlorophenyl)-8-chloro-3,5-dihydro-3[(2',2',6',6'-tetramethyl-4-piperidyl)-imino]-2-phenazinamine]	1.18 µg/mL (≈ 1.94 µM)	1.02 µg/mL (≈ 1.69 µM)	0.251 µg/mL (≈ 0.415 µM)	4.69	6.80	exceptionally good activity	IC50 [2, 8]: 0.049 µg/mL (≈ 0.081 µM)
CC1(C)CC(N=c2cc3n(-c4cccc(C(F)(F)F)c4)c4ccc(Cl)cc4nc-3cc2Nc2cccc(C(F)(F)F)c2)CC(C)(C)N1 [Compound B4127, N,5-bis(3-trifluoromethylphenyl)-8-chloro-3,5-dihydro-3-[(2',2',6',6'-tetramethyl-4-piperidyl)-imino]-2-phenazinamine]	1.32 µg/mL (≈ 1.97 µM)	1.31 µg/mL (≈ 1.95 µM)	0.454 µg/mL (≈ 0.675 µM)	2.91	6.07	–	–
CC1(C)CC(N=c2cc3n(-c4ccc(Cl)cc4Cl)c4ccccc4nc-3cc2Nc2ccc(Cl)cc2Cl)CC(C)(C)N1 [Compound B4128, N,5-bis(2,4-dichiorophenyl)-3,5-dihydro-3-[(2',2',6',6'-tetramethyl-4-piperidyl)-imino]-2-phenazinamine]	1.23 µg/mL (≈ 1.92 µM)	0.782 µg/mL (≈ 1.22 µM)	0.434 µg/mL (≈ 0.679 µM)	2.82	6.49	increased substantially and unexpectedly	–
CCN(CC)CCCN=c1cc2n(-c3ccc(Cl)c(Cl)c3)c3ccccc3nc-2cc1Nc1ccc(Cl)c(Cl)c1 [Compound B4154]	1.33 µg/mL (≈ 2.17 µM)	0.648 µg/mL (≈ 1.06 µM)	0.378 µg/mL (≈ 0.616 µM)	3.52	2.99	–	–
CC(C)c1ccc(Nc2cc3nc4cc(Cl)ccc4n(-c4ccc(C(C)C)cc4)c-3cc2=NC2CC(C)(C)NC(C)(C)C2)cc1 [Compound B4159, N,5-bis(4-isopropylphenyl)-8-chloro-3,5-dihydro-3-[(2',2',6',6'-tetramethyl-4-piperidyl)-imino]-2-phenazinamine]	1.55 µg/mL (≈ 2.5 µM)	1.09 µg/mL (≈ 1.76 µM)	0.268 µg/mL (≈ 0.432 µM)	5.79	7.02	exceptionally good activity	–
CC1(C)CC(N=c2cc3n(-c4ccc(OC(F)(F)F)cc4)c4ccccc4nc-3cc2Nc2ccc(OC(F)(F)F)cc2)CC(C)(C)N1 [Compound B4177, N,5-bis(4-trifluoromethoxyphenyl)-3,5-dihydro-3-[(2',2',6',6'-tetramethyl-4-piperidyl)-imino)-2-phenazinamine]	0.6 µg/mL (≈ 0.896 µM)	0.852 µg/mL (≈ 1.27 µM)	0.056 µg/mL (≈ 0.0836 µM)	10.71	–	–	MDR activity against the cell line H69/LX4 [1]: very good activity
CO[C@@]12[C@H](COC(N)=O)C3=C(C(=O)C(C)=C(N)C3=O)N1C[C@@H]1N[C@@H]12 [Mitomycin C, reference compound]	–	–	–	–	–	–	IC50 ([1]; 168 h, read-out: IC50 of chemotherapeutic agent, MDR inhibitor None): 0.1 µg/mL (≈ 0.299 µM)
